# Laboratory results published in the supplement of paper PMC10307832.
# Assays:
# Assay in all cases: relative viability (nuclei count vs DMSO), 5 days (fraction); higher = more cells survive
# [1] = compound: Nc1ncn([C@H]2C[C@H](O)[C@@H](CO)O2)c(=O)n1 [Decitabine] + CC(=O)c1c(C)c2cnc(Nc3ccc(N4CCNCC4)cn3)nc2n(C2CCCC2)c1=O [Palbociclib] (partner 0.5 µM)
# Outline: (§1)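 A single step with final 0.05% Triton X-100, 1% formaldehyde and 1 ug/ml Hoechst fixed the cells and stained nuclei 5 days after treatment. Lung cancer cell lines in 1536-well plates had been treated by pin tool the day after seeding with one drug alone or a fixed anchor-drug dose plus five library-drug doses (not always all listed) in √10 steps, and nuclei were counted on 4× images. Relative viability is the ratio of nuclei in treated wells to nuclei in vehicle wells, taken as the median of duplicate plates.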
# [2] = compound: O=C(C[C@H]1NCCC[C@@H]1O)Cn1cnc2cc(Br)c(Cl)cc2c1=O (racemic) [Halofuginone] + Nc1ncn([C@H]2C[C@H](O)[C@@H](CO)O2)c(=O)n1 [Decitabine] (partner 2 µM)
# Outline: as §1
# [3] = compound: COc1cc2c(Oc3ccc4[nH]c(C)cc4c3F)ncnc2cc1OCCCN1CCCC1 [Cediranib] + N=C(N)NC(=N)NCCc1ccccc1 [Phenformin] (partner 250 µM)
# Outline: as §1
# [4] = compound: COc1cc2c(Oc3ccc4[nH]c(C)cc4c3F)ncnc2cc1OCCCN1CCCC1 [Cediranib] + CC(=O)c1c(C)c2cnc(Nc3ccc(N4CCNCC4)cn3)nc2n(C2CCCC2)c1=O [Palbociclib] (partner 0.5 µM)
# Outline: as §1
Cell Line,relative viability ([1]; first compound 0.04 µM),relative viability ([1]; first compound 0.1265 µM),relative viability ([1]; first compound 0.4 µM),relative viability ([1]; first compound 4 µM),relative viability ([2]; first compound 0.001 µM),relative viability ([2]; first compound 0.003162 µM),relative viability ([2]; first compound 0.01 µM),relative viability ([2]; first compound 0.03162 µM),relative viability ([2]; first compound 0.1 µM),relative viability ([3]; first compound 0.04 µM),relative viability ([3]; first compound 0.1265 µM),relative viability ([3]; first compound 0.4 µM),relative viability ([3]; first compound 1.265 µM),relative viability ([3]; first compound 4 µM),relative viability ([4]; first compound 0.04 µM),relative viability ([4]; first compound 0.1265 µM),relative viability ([4]; first compound 0.4 µM),relative viability ([4]; first compound 1.265 µM),relative viability ([4]; first compound 4 µM),relative viability ([1]; first compound 1.265 µM)
201T,0.373,0.383,0.439,0.379,0.844,0.896,0.857,0.792,0.845,0.454,0.587,0.422,0.483,0.41,0.368,0.429,0.352,0.372,0.341,–
A549,–,–,–,–,0.338,0.278,0.293,0.257,0.258,0.135,0.121,0.211,0.153,0.212,–,–,–,–,–,–
A-427,0.451,0.466,0.378,0.381,0.626,0.596,0.541,0.564,0.52,0.346,–,0.228,0.308,0.253,0.524,–,0.481,0.458,0.502,0.431
ABC-1,–,0.805,0.794,0.551,1.11,1.39,0.926,1.26,1.04,0.226,0.294,0.243,–,0.241,0.766,1.04,0.538,0.853,0.426,0.57
BEN,0.497,0.443,0.455,0.42,0.719,0.743,0.754,0.778,0.561,0.266,–,0.258,0.236,0.253,0.437,0.412,0.489,0.451,0.47,0.435
CAL-12T,0.279,0.431,0.25,0.288,–,–,–,–,–,0.618,0.641,0.597,0.627,0.648,0.535,0.408,0.411,0.466,0.666,0.28
COR-L23,0.212,0.237,0.196,0.153,0.518,0.511,0.421,0.465,0.217,0.452,0.39,0.406,0.405,0.482,0.282,0.349,0.279,0.353,0.263,0.145
COR-L 105,0.45,0.474,0.397,0.387,0.673,0.791,0.63,0.598,0.568,0.4,0.58,0.497,0.519,0.523,0.413,0.405,0.426,0.394,0.414,0.408
ChaGo-K-1,0.764,0.545,0.442,0.637,0.548,0.531,0.474,0.532,0.532,0.486,0.361,0.452,0.564,0.576,0.979,0.922,0.961,0.996,0.986,0.362
EKVX,0.3,0.372,0.405,0.235,0.317,0.313,0.281,0.354,0.276,0.212,0.177,0.221,0.259,0.233,0.394,0.386,0.326,–,0.316,0.259
EMC-BAC-2,–,0.519,0.523,0.457,0.989,1,0.917,0.874,0.409,0.507,0.583,0.535,0.484,0.436,0.519,0.562,0.529,0.51,0.499,0.467
EPLC-272H,0.353,0.316,–,0.272,0.421,0.4,0.39,0.436,0.351,0.307,–,0.334,–,0.253,0.297,–,0.312,0.327,0.318,0.326
H3255,0.333,0.343,0.3,0.307,0.593,0.682,0.567,0.628,0.517,0.404,–,0.337,0.373,0.312,0.322,0.322,0.316,0.308,0.334,0.302
HARA,0.238,0.244,0.253,0.207,0.664,0.648,0.611,0.591,0.434,0.331,–,0.391,0.429,0.454,0.249,0.32,0.298,0.301,0.211,0.223
HCC-15,0.776,0.591,0.412,0.441,0.647,0.71,0.747,0.676,0.482,0.491,–,0.474,0.512,0.509,0.69,–,0.681,0.751,0.678,0.38
HCC-44,1.01,0.935,0.808,0.873,0.967,0.992,0.953,0.973,0.902,0.195,–,0.241,0.224,0.201,0.983,0.917,0.974,0.947,1.01,0.761
HCC-78,0.483,0.554,0.487,0.423,0.688,0.678,0.667,0.69,0.714,0.712,0.709,0.649,0.607,0.718,0.55,–,0.507,0.53,0.592,0.436
HCC-366,0.306,0.244,0.175,0.0669,0.385,0.418,0.339,0.373,0.336,0.536,0.594,0.614,0.738,0.663,0.451,0.404,0.366,0.411,0.262,0.0803
